Data on one compound can be found in patent US11712429B2, “Low eructation composition and methods for treating and/or preventing cardiovascular disease in a subject with fish allergy/hypersensitivity” (Amarin Pharmaceuticals Ireland Limited, priority 2010, dated 2023).

Data set [1] can be described thus: Essential fatty acid (EFA) measurements in plasma and RBC, AAMI study. In kind it is in vivo, human. Here is the method:
(3) assess the potential dose-effect relationship of E-EPA on the cognitive endpoints by measurement of essential fatty acids in plasma and red blood cell membranes. 94 subjects were randomized. Blood samples (10 mL) were collected at Visit 1 (screening) and at Visits 4, 5 and 6. Analysis was performed by MSR Lipid Analysis, Scottish Crop Research Institute, Dundee, UK. The screening sample acted as baseline for the EFA measurements. Lipid was extracted from plasma, serum and RBC suspensions and converted into fatty acid methyl esters which were analyzed by gas chromatography to give fatty acid profiles as micrograms fatty acid per gram of sample (μgFA/g) and normalized area percent. The CDR computerized system has been used to measure the effects of pharmaceuticals on cognitive function in a variety of clinical trials. Efficacy was assessed by a battery of cognition tests designed by CDR. Safety data were analyzed by Quanticate. RBC and plasma EFA data were collected at baseline, Day 14, 28 and 42 and summarized by visit for each treatment group. Change from baseline and percent change from baseline were also summarized. ANCOVA comparison of ethyl-EPA dose groups and ethyl-EPA versus placebo was performed.

The subject of data set [2] is individuals with Huntington disease. Nature of the data set: Huntington disease trial (TREND-HD): non-fasting triacylglycerols and total cholesterol. Format: in vivo, human. An excerpt: Eligible study participants provided written consent. […] The outcome measure of this study was the change in non-fasting triacylglycerol (TG) levels in those on AMR101 compared to those on placebo. Changes in lipid levels were compared using an analysis of covariance (ANCOVA) with treatment group as the factor of interest, site as a stratification factor, and baseline value as a covariate. All individuals who received study medication were included in the safety analysis. For each type of adverse event, the treatment groups were compared regarding the occurrence of at least one event using Fisher's exact test.

Data set [3] has the same test system. Nature of the data set: Huntington disease trial (TREND-HD): total motor score 4 of the Unified Huntington's Disease Rating Scale. Format: in vivo, human. An excerpt:
Eligible study participants provided written consent.

Details of data set [4]: species or system human. Particulars: in vivo. Here is the method:
A phase I, multiple dose pharmacokinetic study in healthy male volunteers was carried out at a single center. Twenty-four subjects were divided into two treatment groups of 12 subjects each (groups A and B). Both groups received the same total daily dose of AMR101 but the dosing regiments were different. All subjects received a single oral dose of 2 g AMR101 on Day 1. Treatment Group A received 28 continuous once daily doses of 2 g AMR101. Treatment Group B received 27 continuous twice daily doses of 1 g AMR101 and a single dose of 2 g of AMR101 on day 30.
Levels of EPA and other essential fatty acids were determined in plasma and red blood cells. Blood samples for pharmacokinetic analysis were taken at the following time points for Treatment groups A and B:
Days 9, 16, 23: pre morning dose;
Days 37, 44, 58: post last dose.
A first Interim Report presents the following pharmacokinetic results for Treatment Group B:
Red cell—Day 1 (Pre-dose and 36 h), Day 30 (1 h post-dose), Day 37, Day 44, Day 58.

Turning to `CC/C=C\C/C=C\C/C=C\C/C=C\C/C=C\CCCC(=O)OCC` [AMR101, all-cis eicosa-5,8,11,14,17-pentaenoic acid ethyl ester], in data set [1] (4 g dose, plasma, 6 weeks), the “Percent Fatty Acid Change from Baseline: AA” value was −21.9%, the “Percent Fatty Acid Change from Baseline: DGLA” value was −39.4%, the “Percent Fatty Acid Change from Baseline: DHA” value is reported as −17.5% and the “Percent Fatty Acid Change from Baseline: DPA” value is “+147%”. In addition, the “EPA, DPAn-3 and EPA/AA ratio plasma and RBC values” in data set [1] (baseline to Day 42, 1, 2, and 4 g treatment groups) is “increased substantially”. The “AA, DHA and DGLA values” in data set [1] (change from baseline, data not shown) was “decreased substantially”. Moreover, in data set [2] (1 gram twice/day, after 6 months, baseline 204 mg/dL, p=0.009 vs placebo), the Total cholesterol reduction is 9.5 mg/dL. In addition, the “decrease in TGs” value in data set [2] (1 gram twice/day, after 6 months, non-fasting, baseline 171, p=0.007 vs placebo) worked out at 26 mg/dL. For the same compound, the “Change in triglycerides after 6 months (mean mg/dL ± SD)” value in data set [2] (1 gram twice/day, baseline 171 ± 108, p .007) was -25.8 ± 89.1 mg/dL. Further, the “Change in total cholesterol after 6 months (mean mg/dL ± SD)” value in data set [2] (1 gram twice/day, baseline 204 ± 41.4, p .009) is -9.5 ± 28.6 mg/dL. For the same compound, in data set [2] (second 6 months open-label, p 0.66), the “Change in triglycerides after 12 months (mean mg/dL ± SD)” value was -17.7 ± 86.7 mg/dL. Moreover, the “Change in total cholesterol after 12 months (mean mg/dL ± SD)” value in data set [2] (second 6 months open-label, p 0.95) was -5.6 ± 25.5 mg/dL. For the same compound, in data set [3] (All Study Participants n = 316, baseline 25.2, p 0.02), the “Change in total motor score 4 at 12 months (mean)” value is 0.0. In addition, in data set [3] (All Study Participants n = 316, baseline 25.2, p 0.20), the “Change in total motor score 4 at 6 months (mean)” value is reported as 0.2. For the same compound, in data set [3] (Study Participants with CAG < 45, n = 221, baseline 24.9, p 0.004), the “Change in total motor score 4 at 12 months (mean)” value is −1.2. For the same compound, in data set [3] (Study Participants with CAG < 45, n = 221, baseline 24.9, p 0.70), the “Change in total motor score 4 at 6 months (mean)” value was determined as 0.0. Further, the “plasma lipid EPA levels at 48 hours post-administration” value in data set [4] (po) was “remaining above baseline”. For the same compound, the “Tmax” value in data set [4] (male, human) is listed as 4.64 h. The “time of maximum plasma lipid EPA values” in data set [4] (male, human, po) is 5 h.
